≈ marks a conversion by molar mass, not a printed value.
Columns and labels:
[1] = system: PVY; experiment: Anti-PVY inactivating activity, half-leaf method; details: for pest or weed control at 500 µg/mL / EC50: Potato virus Y, in Chenopodium amaranticolor; for pest or weed control at 500 µg/mL: 120 h; for EC50: read-out: Inactivating effect EC50
Description: (§1) Owing to its non-host resistance to PVY, Chenopodium amaranticolor develops a hypersensitive response (HR) within 48–72 hours post-inoculation, producing sharply delimited chlorotic or necrotic local lesions on the inoculated leaves. The number of lesions correlates linearly and positively with virus titre, thereby serving as a quantitative indicator of viral virulence and of the inactivating efficacy of test compounds. The PVY viral extract was rubbed onto the surface of Nicotiana tabacum K326 leaves. After the characteristic symptoms of leaf wrinkling and inward curling appeared, the leaves were harvested and stored at -80°C, then purified according to previously reported methods.[50]^,[51]^,[52] Host leaves were ground to a fine powder in liquid nitrogen, followed by homogenization on ice in 0.5 M phosphate buffer. An equal volume of chloroform:n-butanol (1:1, v/v) corresponding to 10% of the total buffer volume was added, and the mixture was further homogenized on ice. After centrifugation at 10,000g for 20 minutes (4°C), the supernatant was collected as the crude PVY extract. Using 4–5-leaf-stage Chenopodium amaranticolor maintained under optimal growth conditions, a bioassay was conducted with two plants per treatment to systematically evaluate the curative, protective, and inactivating efficacy of the target compound against PVY.[53] […] Each compound was evaluated in three replicates, and the average value was calculated.
Two different dilutions of the virus solution (600-fold and 1200-fold) were prepared, along with a 1000 μg/mL drug solution. The drug solution was mixed with the 600-fold diluted virus solution on ice and incubated for 30 minutes. During the incubation period, the left side of the leaves was treated with a 1200-fold diluted virus solution. After the incubation was completed, the mixed system of drug and virus is inoculated on the right side of the leaf. After waiting for the infection to be completed, the carborundum on the leaf surface was washed off with running water, and the plants were then cultivated in a greenhouse. The number of dead spots on the leaves was counted after approximately 5 days.

[2] = system: PVY; experiment: Anti-PVY curative activity, half-leaf method; details: Potato virus Y, in Chenopodium amaranticolor, 120 h, read-out: Curative effect (%)
Description: as §1
Chenopodium amaranticolor was selected as the dead spot host. Excess leaves were first trimmed off, and a uniform layer of carborundum was applied to the leaf surface. The leaves were then inoculated by rubbing with a 1200-fold diluted virus solution. After more than an hour, the carborundum on the leaf surface was washed off with running water, and a 500 μg/mL drug solution was prepared. […] The treated plants were cultivated in a greenhouse for observation, and the number of dead spots on the leaves was counted after approximately 5 days.

[3] = system: PVY; experiment: Anti-PVY protective activity, half-leaf method; details: Potato virus Y, in Chenopodium amaranticolor, 120 h, read-out: Protective effect (%)
Description: as §1
In contrast to the antiviral therapeutic activity, the leaves were first treated with the drug solution. A 500 μg/mL drug solution was applied to the right side of the leaves, with the left side serving as a control and treated with a 1% Tween 80 solution. After the leaves had dried under natural conditions, they were placed in a greenhouse for 24 hours before inoculation by rubbing with carborundum, following the same procedures as those for curative activity. After treatment, the plants were maintained in a greenhouse, and the number of local lesions on the inoculated leaves was recorded approximately 5 days.

[4] = molecular target: T1, PVY CP (Potato virus Y, UniProt P18247); experiment: biochemical; assay type: binding
T1 construct: 6xHis tag (within the N-terminal pET-32a(+) fusion leader; the Trx and S-tag parts are inferred from the vector and the ~50 kDa band) (N, cleaved yes); made in house; host or cells: Escherichia coli BL21 (DE3) pLysS
T1 sequence (P18247 2797-3063): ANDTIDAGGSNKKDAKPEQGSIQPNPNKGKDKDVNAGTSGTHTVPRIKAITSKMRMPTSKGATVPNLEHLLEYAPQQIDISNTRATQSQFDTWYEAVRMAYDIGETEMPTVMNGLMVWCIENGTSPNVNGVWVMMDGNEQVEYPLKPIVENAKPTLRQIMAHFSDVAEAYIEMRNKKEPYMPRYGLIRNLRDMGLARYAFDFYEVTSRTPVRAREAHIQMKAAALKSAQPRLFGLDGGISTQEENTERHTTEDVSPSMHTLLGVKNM

[5] = molecular target: T2, PVY CP^P154A (Potato virus Y, UniProt P18247, P2950A); experiment: MST binding to mutant PVY CP^P154A
T2 construct: 6xHis tag (within the N-terminal pET-32a(+) fusion leader; the Trx and S-tag parts are inferred from the vector and the ~50 kDa band) (N, cleaved yes); made in house; host or cells: Escherichia coli BL21 (DE3) pLysS
T2 sequence (P18247 2797-3063 P2950A): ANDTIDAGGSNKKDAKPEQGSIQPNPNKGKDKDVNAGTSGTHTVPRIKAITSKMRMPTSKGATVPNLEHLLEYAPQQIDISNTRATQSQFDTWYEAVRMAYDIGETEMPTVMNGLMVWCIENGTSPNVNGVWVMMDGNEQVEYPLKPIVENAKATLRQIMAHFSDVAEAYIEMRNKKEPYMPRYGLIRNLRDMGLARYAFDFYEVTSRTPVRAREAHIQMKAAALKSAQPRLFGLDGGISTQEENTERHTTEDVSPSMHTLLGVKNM

[6] = read-out: Inactivating effect (%), 500 μg/mL, host Chenopodium amaranticolor, average of three replicates

| SMILES | pest or weed control at 500 µg/mL [1, 6] | EC50 [1] | pest or weed control at 500 µg/mL [2] | pest or weed control at 500 µg/mL [3] | pest or weed control at 500 µg/mL ([1]; read-out: Inactivating effect (%)) | Inactivating effect (%) ([1]; 500 μg/mL, host Chenopodium amaranticolor, average of three replicates) | Kd [4] | Kd [5] |
| --- | --- | --- | --- | --- | --- | --- | --- | --- |
| COc1ccc(/C=C2\Oc3cc(OCC(=O)NS(=O)(=O)c4ccc(Cl)cc4)ccc3C2=O)cc1 [D1] | 50 ± 3.5% | 307 ± 13.7 µg/mL (≈ 614 µM) | 38.7 ± 3.7% | 44.8 ± 3.8% | – | – | – | – |
| COc1ccc(/C=C2\Oc3cc(OCC(=O)NS(=O)(=O)c4ccccc4)ccc3C2=O)cc1 [D2] | 60 to 80% | – | 41.4 ± 2.9% | 36.9 ± 2.7% | – | – | – | – |
| COc1ccccc1/C=C1\Oc2cc(OCC(=O)NS(=O)(=O)c3ccc(Cl)cc3)ccc2C1=O [D3] | 60 to 80% | – | 40.1 ± 3.8% | 36.9 ± 2.9% | – | – | – | – |
| COc1ccccc1/C=C1\Oc2cc(OCC(=O)NS(=O)(=O)c3ccccc3)ccc2C1=O [D4] | 60 to 80% | – | 43.1 ± 2.9% | 33.8 ± 1% | – | – | – | – |
| COc1cccc(/C=C2\Oc3cc(OCC(=O)NS(=O)(=O)c4ccc(Cl)cc4)ccc3C2=O)c1 [D5] | 60 to 80% | – | 41.7 ± 3.5% | 37.6 ± 4.8% | – | – | – | – |
| COc1cccc(/C=C2\Oc3cc(OCC(=O)NS(=O)(=O)c4ccccc4)ccc3C2=O)c1 [D6] | 58.8 ± 4.5% | – | 36.5 ± 2.9% | 40.5 ± 0.8% | – | – | – | – |
| COc1ccc(/C=C2\Oc3cc(OCC(=O)NS(=O)(=O)c4ccc(F)cc4)ccc3C2=O)c(OC)c1 [D9] | 58.1 ± 5.4% | – | 45.7 ± 3.3% | 35.6 ± 2.5% | – | – | – | – |
| COc1ccc(/C=C2\Oc3cc(OCC(=O)NS(=O)(=O)c4ccc(F)cc4)ccc3C2=O)cc1 [D10] | 43.7 ± 5% | – | 24.4 ± 1.9% | 33.9 ± 4% | – | – | – | – |
| COc1cccc(/C=C2\Oc3cc(OCC(=O)NS(=O)(=O)c4ccc(F)cc4)ccc3C2=O)c1 [D11] | 52.9 ± 2.8% | – | 40.6 ± 2% | 42.7 ± 2.8% | – | – | – | – |
| COc1ccccc1/C=C1\Oc2cc(OCC(=O)NS(=O)(=O)c3ccc(F)cc3)ccc2C1=O [D12] | 59.4 ± 3.6% | – | 34.1 ± 3.5% | 44.5 ± 1.5% | – | – | – | – |
| COc1ccc(/C=C2\Oc3cc(OCC(=O)NS(=O)(=O)c4ccc(Br)cc4)ccc3C2=O)c(OC)c1 [D14] | 49.2 ± 4.2% | – | 29.8 ± 4.8% | 37.9 ± 4.4% | – | – | – | – |
| COc1ccccc1/C=C1\Oc2cc(OCC(=O)NS(=O)(=O)c3ccc(Br)cc3)ccc2C1=O [D15] | 53.4 ± 4.2% | – | 37.1 ± 0.9% | 39.3 ± 2.9% | – | – | – | – |
| COc1cccc(/C=C2\Oc3cc(OCC(=O)NS(=O)(=O)c4ccc(Br)cc4)ccc3C2=O)c1 [D16] | 42.9 ± 4.3% | – | 29 ± 1.6% | 36.9 ± 2.4% | – | – | – | – |
| COc1cccc(/C=C2\Oc3cc(OCC(=O)NS(=O)(=O)c4ccc(Cl)cc4)ccc3C2=O)c1OC [D17] | 60 to 80% | 142 ± 15.2 µg/mL (≈ 267 µM) | 46.2 ± 1.4% | 40.7 ± 2.3% | – | – | – | – |
| COc1ccc(/C=C2\Oc3cc(OCC(=O)NS(=O)(=O)c4ccc(Cl)cc4)ccc3C2=O)cc1OC [D18] | 56.8 ± 2.8% | – | 25.5 ± 4% | 38.2 ± 3% | – | – | – | – |
| COc1cc(/C=C2\Oc3cc(OCC(=O)NS(=O)(=O)c4ccc(Cl)cc4)ccc3C2=O)cc(OC)c1 [D19] | 46 ± 3% | – | 36.4 ± 5.6% | 35.7 ± 3.8% | – | – | – | – |
| COc1cccc(/C=C2\Oc3cc(OCC(=O)NS(=O)(=O)c4ccccc4)ccc3C2=O)c1OC [D20] | 64.7 ± 3.4% | – | 34.9 ± 4.9% | 31.3 ± 3.8% | – | – | – | – |
| COc1cc(/C=C2\Oc3cc(OCC(=O)NS(=O)(=O)c4ccc(Br)cc4)ccc3C2=O)cc(OC)c1 [D21] | 50.5 ± 1.6% | – | 33 ± 3.9% | 22.7 ± 1.2% | – | – | – | – |
| COc1ccc(/C=C2\Oc3cc(OCC(=O)NS(=O)(=O)c4ccc(Br)cc4)ccc3C2=O)cc1OC [D22] | 52 ± 3% | – | 36.2 ± 1.5% | 28.1 ± 2.3% | – | – | – | – |

| SMILES | pest or weed control at 500 µg/mL [1, 6] | EC50 [1] | pest or weed control at 500 µg/mL [2] | pest or weed control at 500 µg/mL [3] | pest or weed control at 500 µg/mL ([1]; read-out: Inactivating effect (%)) | Inactivating effect (%) ([1]; 500 μg/mL, host Chenopodium amaranticolor, average of three replicates) | Kd [4] | Kd [5] |
| --- | --- | --- | --- | --- | --- | --- | --- | --- |
| COc1ccc(/C=C2\Oc3cc(OCC(=O)NS(=O)(=O)c4ccccc4)ccc3C2=O)cc1OC [D23] | 45.4 ± 1.1% | – | 35.3 ± 1.5% | 33.4 ± 3.9% | – | – | – | – |
| COc1cc(/C=C2\Oc3cc(OCC(=O)NS(=O)(=O)c4ccccc4)ccc3C2=O)cc(OC)c1 [D24] | 60 to 80% | 147 ± 11 µg/mL (≈ 297 µM) | 50.1 ± 1.8% | 31 ± 3% | – | – | – | – |
| COc1cccc(/C=C2\Oc3cc(OCC(=O)NS(=O)(=O)c4ccc(Br)cc4)ccc3C2=O)c1OC [D25] | 55.4 ± 2% | – | 35.9 ± 3.9% | 41.9 ± 2.6% | – | – | – | – |
| COc1ccc(/C=C2\Oc3cc(OCC(=O)NS(=O)(=O)c4ccc(F)cc4)ccc3C2=O)cc1OC [D26] | 55.3 ± 3% | – | 32.4 ± 1.7% | 40.2 ± 5% | – | – | – | – |
| COc1cccc(/C=C2\Oc3cc(OCC(=O)NS(=O)(=O)c4ccc(F)cc4)ccc3C2=O)c1OC [D27] | 60 to 80% | – | 45.1 ± 3.7% | 33.9 ± 2.3% | – | – | – | – |
| COc1cc(/C=C2\Oc3cc(OCC(=O)NS(=O)(=O)c4ccc(F)cc4)ccc3C2=O)cc(OC)c1 [D28] | 56.4 ± 4.7% | – | 39.9 ± 2.9% | 32.5 ± 4.4% | – | – | – | – |
| COc1cc(OC)c(/C=C2\Oc3cc(OCC(=O)NS(=O)(=O)c4ccc(F)cc4)ccc3C2=O)c(OC)c1 [D29] | 57.1 ± 4.3% | – | 36.7 ± 4% | 37.9 ± 2.7% | – | – | – | – |
| COc1ccc(OC)c(/C=C2\Oc3cc(OCC(=O)NS(=O)(=O)c4ccccc4)ccc3C2=O)c1 [D30] | 49.4 ± 3.4% | – | 33.3 ± 1.4% | 34.2 ± 3.3% | – | – | – | – |
| COc1cc(OC)c(/C=C2\Oc3cc(OCC(=O)NS(=O)(=O)c4ccccc4)ccc3C2=O)c(OC)c1 [D31] | 57.4 ± 4.3% | – | 42.9 ± 2.4% | 26.3 ± 2.6% | – | – | – | – |
| COc1cc(OC)c(/C=C2\Oc3cc(OCC(=O)NS(=O)(=O)c4ccc(Cl)cc4)ccc3C2=O)c(OC)c1 [D32] | 53.8 ± 3% | – | 43.4 ± 2.3% | 33.3 ± 2.6% | – | – | – | – |
| COc1ccc(OC)c(/C=C2\Oc3cc(OCC(=O)NS(=O)(=O)c4ccc(Cl)cc4)ccc3C2=O)c1 [D33] | 51.1 ± 3.9% | – | 41.2 ± 2.4% | 39.7 ± 2.7% | – | – | – | – |
| COc1ccc(OC)c(/C=C2\Oc3cc(OCC(=O)NS(=O)(=O)c4ccc(F)cc4)ccc3C2=O)c1 [D34] | 46.9 ± 2.4% | – | 39.9 ± 3.7% | 36 ± 1.6% | – | – | – | – |
| COc1ccccc1/C=C1\Oc2cc(OCC(=O)NS(=O)(=O)c3cccc(C(F)(F)F)c3)ccc2C1=O [D35] | 46.6 ± 2% | – | 37.6 ± 1.8% | 39.9 ± 2.8% | – | – | – | – |
| COc1ccc(/C=C2\Oc3cc(OCC(=O)NS(=O)(=O)c4cccc(C(F)(F)F)c4)ccc3C2=O)cc1 [D36] | 55.1 ± 2.8% | – | 36.8 ± 2.2% | 33.9 ± 4.1% | – | – | – | – |
| COc1ccc(/C=C2\Oc3cc(OCC(=O)NS(=O)(=O)c4cccc(C(F)(F)F)c4)ccc3C2=O)c(OC)c1 [D37] | 43.8 ± 3.2% | – | 38.2 ± 2.2% | 29.8 ± 2.7% | – | – | – | – |
| COc1ccc(/C=C2\Oc3cc(OCC(=O)NS(=O)(=O)c4ccc(C(F)(F)F)cc4)ccc3C2=O)c(OC)c1 [D38] | 33.3 ± 3.1% | – | 36.7 ± 3.5% | 28 ± 4% | – | – | – | – |
| CNCC(=O)N[C@@H](CO)C(=O)N[C@H]1[C@H](O)[C@@H](O)[C@H](n2ccc(N)nc2=O)O[C@@H]1C(N)=O [NNM, ningnanmycin, reference compound] | – | 54.3 ± 2.2 µg/mL (≈ 122 µM) | 49 ± 3.9% | 49.1 ± 1.8% | 83.3 ± 1.2% | – | – | – |
| NC(=O)c1ncn([C@@H]2O[C@H](CO)[C@@H](O)[C@H]2O)n1 [RBV, ribavirin, reference compound] | 59.3% | 213 ± 15.4 µg/mL (≈ 873 µM) | 41.9 ± 2.7% | 44.2 ± 3.1% | – | 59.3 ± 3.8% | 50.5 µM | 210 ± 59.3 µM |
